The nature of data set [1]: Polymorphism screen of hydrochloride and benzoate salts: thermal cycling, evaporation, antisolvent addition, cooling (XRPD). It is filed as physicochemical. The note with it: solvent per experiment: -01 1,4-Dioxane, -02 1-Propanol, -03 2-Butanol, -05 2-Methyltetrahydrofuran, -06 2-Propanol, -07 Acetone, -08 Acetonitrile, -09 Anisole, -10 Chlorobenzene, -11 Ethanol, -12 Ethyl acetate, -13 Isopropyl acetate, -14 Methanol, -15 Propyl acetate, -16 Methylethyl ketone; for XRPD Result / 3-day Observations: hydrochloride salt, three days; for XRPD Result: solid isolated after thermal cycle between ambient and 40° C., -20 iso-Prop; for 3-day Observations: thermally cycled between ambient and 40° C., -17 Forma; for 3-day Observations / Initial Observations: -04 2-Ethoxyethanol; for Initial Observations: thermal cycle of lyophilised hydrochloride salt (~40 mg), solvent added, -17 Formamide. As to the method: Twenty five of the lyophilised samples were treated with solvent and thermally cycled between ambient and 40° C. with four hours spent under each condition. After three days and solids were isolated by centrifuge filtration and analysed by XRPD.
Twelve samples of the lyophilised material were treated with a minimal volume (ca 0.5 ml) of warm solvent, syringe filtered through a 0.22 µm filter and added to a clean HPLC vial and allowed to evaporate at RT. The solvents used and XRPD results following evaporation are detailed in the Table below:
Twelve samples of the lyophilised material were treated with a minimal volume (ca 0.5 ml) of warm solvent, syringe filtered through a 0.22 micrometre filter and added to a clean HPLC vial and allowed to evaporate at RT. The solvents used and XRPD results following evaporation are detailed in the Table below:
For antisolvent additions thirteen samples of the lyophilised material were dissolved in a small amount of hot solvent (^˜0.5 ml). […] A large excess of antisolvent was then added, the vials sealed. After storage at RT overnight, and samples where no solid had been produced were first cooled to 4° C. for ˜24 hrs, and again if no solid was produced, they were cooled to −18° C. Any solids were isolated by centrifuge filtration and analysed by XRPD.
For the cooling experiments twelve samples of the lyophilised material were dissolved in a small amount of hot solvent (^˜[…]) and syringe filtered through a 0.22 μm filter into a clean HPLC vial. Samples were allowed to cool to RT, and if no solid was produced to 4° C. and then to −18° C. Solids were isolated by centrifuge filtration and analysed by XRPD.

Data set [2] in a line: Thermo-Gravimetric Analysis (TGA), thermal stability. Particulars: 10° C./min; for thermal stability up to (TGA): nitrogen. As for the experimental part:
Thermo—Gravimetric Analysis (TGA)
TGA thermograms were obtained with a TA Instrument Discovery 550 in Al pans. The heating rate used was 10° C./min linear ramp from 25 to 400° C. with a nitrogen purging at a rate of 60 ml/min. TGA thermograms were analysed using TRIOS software.

Data set [3] in a line: Dynamic Vapor Sorption (DVS), salt screen and scale-up salts. The class given is physicochemical. Particulars: 25° C. As for the experimental part: Dynamic Vapor Sorption (DVS)
DVS analyses were performed on TA Instrument DVS Q5000. Samples were added to a pre-tared metallised quartz crucible and run at 25° C. from 40% RH to 90% RH, down to zero and back to 40%. This cycle was repeated in increments of 10% RH.

[4] abbreviates: listed as DJP2202-007-01, hydrochloride.

Molecules are shown by their SMILES. Where a name gives a salt, the structure may show the parent alone.

As to `COc1ccc2[nH]cc(CCN(C)C)c2c1.Cl` [DJP2202-007-02], in data set [1], the “XRPD Result” value is on record as “Pattern 1”, the “3-day Observations” value is “few crystals” and the “Initial Observations” value is given as “no change”.

Take `COc1ccc2[nH]cc(CCN(C)C)c2c1.Cl` [DJP2202-007-03]: in data set [1], the “XRPD Result” value is on record as “Pattern 1”, the “3-day Observations” value is “few crystals” and the “Initial Observations” value is on record as “no change”.

With `COc1ccc2[nH]cc(CCN(C)C)c2c1.Cl` [DJP2202-007-04], in data set [1], the “3-day Observations” value is “clear solution” and the “Initial Observations” value is reported as “dissolved”.

Regarding `COc1ccc2[nH]cc(CCN(C)C)c2c1.Cl` [DJP2202-007-05], in data set [1], the “XRPD Result” value is given as “Pattern 1”, the “3-day Observations” value is “few crystals” and the “Initial Observations” value is “no change”.

With `COc1ccc2[nH]cc(CCN(C)C)c2c1.Cl` [DJP2202-007-06], in data set [1], the “XRPD Result” value is on record as “Pattern 1”, the “3-day Observations” value is reported as “few crystals” and the “Initial Observations” value is listed as “no change”.

As to `COc1ccc2[nH]cc(CCN(C)C)c2c1.Cl` [DJP2202-007-07], in data set [1], the “XRPD Result” value is listed as “Pattern 1”, the “3-day Observations” value is on record as “few crystals” and the “Initial Observations” value is reported as “no change”.

In the case of `COc1ccc2[nH]cc(CCN(C)C)c2c1.Cl` [DJP2202-007-08], in data set [1], the “XRPD Result” value is reported as “Pattern 1” and the “Initial Observations” value is given as “no change”.

For the compound `COc1ccc2[nH]cc(CCN(C)C)c2c1.Cl` [DJP2202-007-09], in data set [1], the “XRPD Result” value is “Pattern 1” and the “Initial Observations” value is recorded as “no change”.

Regarding `COc1ccc2[nH]cc(CCN(C)C)c2c1.Cl` [DJP2202-007-10], in data set [1], the “XRPD Result” value is “Pattern 1”, the “3-day Observations” value is on record as “white solid” and the “Initial Observations” value is listed as “no change”.

For the compound `COc1ccc2[nH]cc(CCN(C)C)c2c1.Cl` [DJP2202-007-11], in data set [1], the “XRPD Result” value was “Pattern 1”, the “3-day Observations” value was “white solid” and the “Initial Observations” value is given as “no change”.

Take `COc1ccc2[nH]cc(CCN(C)C)c2c1.Cl` [DJP2202-007-12]: in data set [1], the “XRPD Result” value was “Pattern 1”, the “3-day Observations” value is recorded as “white solid” and the “Initial Observations” value is “no change”.

On to `COc1ccc2[nH]cc(CCN(C)C)c2c1.Cl` [DJP2202-007-13], for which, in data set [1], the “XRPD Result” value is recorded as “Pattern 1”, the “3-day Observations” value is “white solid” and the “Initial Observations” value is given as “no change”.

For the compound `COc1ccc2[nH]cc(CCN(C)C)c2c1.Cl` [DJP2202-007-15], in data set [1], the “XRPD Result” value is “Pattern 1” and the “Initial Observations” value is “no change”.

Turning to `COc1ccc2[nH]cc(CCN(C)C)c2c1.Cl` [DJP2202-007-16], in data set [1], the “XRPD Result” value is on record as “Pattern 2”, the “3-day Observations” value is “white crystals” and the “Initial Observations” value was “no change”.

As to `COc1ccc2[nH]cc(CCN(C)C)c2c1.Cl` [DJP2202-007-17], in data set [1], the “3-day Observations” value is recorded as “few crystals” and the “Initial Observations” value was “dissolved”.

Regarding `COc1ccc2[nH]cc(CCN(C)C)c2c1.Cl` [DJP2202-007-18], in data set [1], the “3-day Observations” value is reported as “clear solution” and the “Initial Observations” value is “dissolved”.

As for `COc1ccc2[nH]cc(CCN(C)C)c2c1.Cl` [DJP2202-007-19], in data set [1], the “3-day Observations” value was “clear solution” and the “Initial Observations” value was “no change”.

As for `COc1ccc2[nH]cc(CCN(C)C)c2c1.Cl` [DJP2202-007-20], in data set [1], the “XRPD Result” value was “Pattern 1”, the “3-day Observations” value is reported as “few crystals” and the “Initial Observations” value is given as “no change”.

With `COc1ccc2[nH]cc(CCN(C)C)c2c1.Cl` [DJP2202-007-21], in data set [1], the “XRPD Result” value is given as “Pattern 1”, the “3-day Observations” value was “few crystals” and the “Initial Observations” value is “no change”.

Consider `COc1ccc2[nH]cc(CCN(C)C)c2c1.Cl` [DJP2202-007-22], for which, in data set [1], the “XRPD Result” value is on record as “Pattern 1”, the “3-day Observations” value is recorded as “few crystals” and the “Initial Observations” value was “no change”.

Turning to `COc1ccc2[nH]cc(CCN(C)C)c2c1.Cl` [DJP2202-007-23], in data set [1], the “3-day Observations” value is “clear solution” and the “Initial Observations” value was “dissolved”.

On to `COc1ccc2[nH]cc(CCN(C)C)c2c1.Cl` [DJP2202-007-24], for which, in data set [1], the “3-day Observations” value is “clear solution” and the “Initial Observations” value is “dissolved”.

As for `COc1ccc2[nH]cc(CCN(C)C)c2c1.Cl` [DJP2202-007-25], in data set [1], the “3-day Observations” value is “clear solution” and the “Initial Observations” value is given as “dissolved”.

For `COc1ccc2[nH]cc(CCN(C)C)c2c1.Cl` [Hydrochloride pattern 2, 5-MeO-DMT hydrochloride], in data set [1] (setting [4]), the “XRPD Result” value is on record as “Pattern 2”, the “3-day Observations” value is on record as “solid mass” and the “Initial Observations” value is “no change”. Further, the “start of decomposition / complete mass loss (TGA)” value in data set [2] (hydrochloride) is “around 256 °C”.

Consider `COc1ccc2[nH]cc(CCN(C)C)c2c1` [Ketoglutarate salt, 5-MeO-DMT ketoglutarate], for which the “water uptake at 40% RH” value in data set [3] (first sorption isotherm) came out at 0.13 % w/w. Moreover, in data set [3] (high RH), the “deliquescence during DVS” value was “deliquesce at high RH”.

On to `COc1ccc2[nH]cc(CCN(C)C)c2c1` [Saccharinate salt, 5-MeO-DMT saccharinate], for which the “thermal stability up to (TGA)” value in data set [2] amounted to 200 °C.

In the case of `COc1ccc2[nH]cc(CCN(C)C)c2c1.O=C(O)c1ccccc1` [benzoate salt pattern 2, 5-MeO-DMT benzoate], in data set [2], the “thermal stability up to (TGA)” value is around 170 °C.

For `COc1ccc2[nH]cc(CCN(C)C)c2c1.O=C(O)c1ccccc1` [benzoate salt pattern 3, 5-MeO-DMT benzoate], the “start of decomposition / complete mass loss (TGA)” value in data set [2] was “approximately 190 °C”.

`COc1ccc2[nH]cc(CCN(C)C)c2c1.O=C(O)c1ccccc1` [benzoate salt pattern 4, 5-MeO-DMT benzoate]: in data set [2], the “start of decomposition / complete mass loss (TGA)” value is “approximately 190 °C” and the “thermal stability up to (TGA)” value is “approximately 190 °C”.

With `COc1ccc2[nH]cc(CCN(C)C)c2c1` [free base, 5-methoxy-N,N-dimethyltryptamine], the “thermal stability up to (TGA)” value in data set [2] was determined as 150 °C.

For the origin of these results see patent publication US11773063B1, “Pharmaceutically acceptable salts and compositions thereof” (priority 2022, dated 2023).
